Measurements taken from patent US9695155B2, “Herbicidal substituted pyrimidinyloxy benzene compounds” (E. I. DU PONT DE NEMOURS AND COMPANY, priority 2013, dated 2017).

Columns and labels:
pigweed = assay: Test D preemergence; assay type: in vivo, Amaranthus retroflexus; settings: Amaranthus retroflexus, pre-emergence
Summary of the method: (§1)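 After treatment, visual injury versus untreated plants, 0–100 scale, assessed at 7 to 21 days. Applications were made preemergence to silt loam-sown seed and postemergence to seedlings 2–18 cm high in potting medium.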

wild mustard = assay: Test D preemergence; assay type: in vivo, Sinapis arvensis; settings: Brassica, pre-emergence, scale 0-100, read-out: Plant response rating, Mustard, Wild
Summary of the method: as §1

wild radish = assay: Test D preemergence; assay type: in vivo, Raphanus raphanistrum; settings: Raphanus raphanistrum, pre-emergence
Summary of the method: as §1

bluegrass = assay: Test D postemergence; assay type: in vivo, Poa annua; settings: Poa annua, post-emergence, Postemergence, scale 0 to 100 (0 no effect, 100 complete control), read-out: Plant response rating, Bluegrass
Summary of the method: as §1

blackgrass = assay: Test D postemergence; assay type: in vivo, Alopecurus myosuroides; settings: Alopecurus myosuroides, post-emergence, Postemergence, scale 0 to 100 (0 no effect, 100 complete control), read-out: Plant response rating, Blackgrass
Summary of the method: as §1

field poppy = assay: Test D postemergence; assay type: in vivo, Papaver rhoeas; settings: Papaver rhoeas, post-emergence, scale 0 to 100 (0 no effect, 100 complete control), read-out: Plant response rating, Field Poppy
Summary of the method: as §1

deadnettle = assay: Test D postemergence; assay type: in vivo, Lamium amplexicaule; settings: Lamium amplexicaule, post-emergence, scale 0 to 100 (0 no effect, 100 complete control), read-out: Plant response rating, Deadnettle
Summary of the method: as §1

spring barley = assay: Test D postemergence; assay type: in vivo, Hordeum vulgare; settings: Hordeum vulgare, post-emergence, Postemergence, scale 0 to 100 (0 no effect, 100 complete control), read-out: Plant response rating, Barley, Spring
Summary of the method: as §1

winter barley = assay: Test D postemergence; assay type: in vivo, Hordeum vulgare; settings: Hordeum vulgare, post-emergence, Postemergence, scale 0 to 100 (0 no effect, 100 complete control), read-out: Plant response rating, Barley, Winter
Summary of the method: as §1

corn = assay: Test E postemergence; assay type: in vivo, Zea mays; settings: Zea mays, post-emergence
Summary of the method: (§2)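 Test chemicals formulated in a non-phytotoxic solvent mixture containing a surfactant were applied preemergence to seeds in silt loam soil or postemergence to plants at the 1- to 4-leaf stage in potting mix. After 14 to 21 days in a greenhouse, injury was visually rated against controls on a 0-100 scale (0 = no effect, 100 = complete control).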

Brazilian crabgrass = assay: Test E postemergence; assay type: in vivo, Digitaria horizontalis; settings: Digitaria horizontalis, post-emergence, read-out: Plant response rating, Crabgrass, Brazil
Summary of the method: as §2

hairy beggarticks = assay: Test E postemergence; assay type: in vivo, Bidens pilosa; settings: Bidens pilosa, post-emergence, read-out: Plant response rating, Beggarticks
Summary of the method: as §2

[1] = Postemergence, 31 g ai/ha, scale 0 to 100
[2] = Postemergence, 62 g ai/ha, scale 0 to 100
[3] = Postemergence, 125 g ai/ha, scale 0 to 100
[4] = Postemergence, 250 g ai/ha, scale 0 to 100
[5] = postemergence, 16 g ai/ha, scale 0 to 100, 0 no effect, 100 complete control

N#Cc1cccc(Oc2ncc(Br)cn2)c1-n1cc(C(F)(F)F)cn1 [Compound 59, 3-[(5-bromo-2-pyrimidinyl)oxy]-2-[4-(trifluoromethyl)-1H-pyrazol-1-yl]benzonitrile]
pest or weed control at 31 g/ha (pigweed; 31 g ai/ha, scale 0 (no effect) to 100 (complete control), read-out: Plant response rating, Pigweed): 100%
pest or weed control at 62 g/ha (pigweed; 62 g ai/ha, scale 0-100, read-out: Plant response rating, Pigweed): 100%
pest or weed control at 125 g/ha (pigweed; 125 g ai/ha, scale 0-100, read-out: Plant response rating, Pigweed): 100%
pest or weed control at 250 g/ha (pigweed; 250 g ai/ha, scale 0-100, read-out: Plant response rating, Pigweed): 100%
pest or weed control at 31 g/ha (wild mustard; 31 g ai/ha): 15%
pest or weed control at 62 g/ha (wild mustard; 62 g ai/ha): 100%
pest or weed control at 125 g/ha (wild mustard; 125 g ai/ha): 100%
pest or weed control at 250 g/ha (wild mustard; 250 g ai/ha): 100%
pest or weed control at 31 g/ha (wild radish; 31 g ai/ha, scale 0 (no effect) to 100 (complete control), read-out: Plant response rating, Radish, Wild): 95%
pest or weed control at 62 g/ha (wild radish; 62 g ai/ha, scale 0-100, read-out: Plant response rating, Radish, Wild): 100%
pest or weed control at 125 g/ha (wild radish; 125 g ai/ha, scale 0-100, read-out: Plant response rating, Radish, Wild): 95%
pest or weed control at 250 g/ha (wild radish; 250 g ai/ha, scale 0-100, read-out: Plant response rating, Radish, Wild): 100%
pest or weed control at 31 g/ha (bluegrass; 31 g ai/ha): 15%
pest or weed control at 62 g/ha (bluegrass; 62 g ai/ha): 15%
pest or weed control at 125 g/ha (bluegrass; 125 g ai/ha): 20%
pest or weed control at 250 g/ha (bluegrass; 250 g ai/ha): 40%
pest or weed control at 62 g/ha (blackgrass; 62 g ai/ha): 30%
pest or weed control at 31 g/ha (blackgrass; 31 g ai/ha): 25%
pest or weed control at 125 g/ha (blackgrass; 125 g ai/ha): 40%
pest or weed control at 250 g/ha (blackgrass; 250 g ai/ha): 70%
pest or weed control at 31 g/ha (field poppy; 31 g ai/ha): 70%
pest or weed control at 62 g/ha (field poppy; 62 g ai/ha): 65%
pest or weed control at 125 g/ha (field poppy; 125 g ai/ha): 100%
pest or weed control at 250 g/ha (field poppy; 250 g ai/ha): 100%
pest or weed control at 31 g/ha (deadnettle; 31 g ai/ha): 70%
pest or weed control at 62 g/ha (deadnettle; 62 g ai/ha): 75%
pest or weed control at 125 g/ha (deadnettle; 125 g ai/ha): 100%
pest or weed control at 250 g/ha (deadnettle; 250 g ai/ha): 100%
plant injury at 31 g/ha (spring barley; 31 g ai/ha): 10%
plant injury at 62 g/ha (spring barley; 62 g ai/ha): 20%
plant injury at 125 g/ha (spring barley; 125 g ai/ha): 20%
plant injury at 250 g/ha (spring barley; 250 g ai/ha): 35%
plant injury at 31 g/ha (winter barley; 31 g ai/ha): 10%
plant injury at 62 g/ha (winter barley; 62 g ai/ha): 15%
plant injury at 125 g/ha (winter barley; 125 g ai/ha): 15%
plant injury at 250 g/ha (winter barley; 250 g ai/ha): 25%
corn plant response (injury) rating, 0-100 at 31 g/ha (corn; [1]): 5%
corn plant response (injury) rating, 0-100 at 62 g/ha (corn; [2]): 10%
corn plant response (injury) rating, 0-100 at 125 g/ha (corn; [3]): 10%
corn plant response (injury) rating, 0-100 at 250 g/ha (corn; [4]): 15%
corn plant response (injury) rating, 0-100 at 16 g/ha (corn; [5]): 5%
pest or weed control at 31 g/ha (Brazilian crabgrass; [1]): 15%
pest or weed control at 62 g/ha (Brazilian crabgrass; [2]): 20%
pest or weed control at 125 g/ha (Brazilian crabgrass; [3]): 25%
pest or weed control at 250 g/ha (Brazilian crabgrass; [4]): 50%
pest or weed control at 16 g/ha (Brazilian crabgrass; [5]): 15%
pest or weed control at 31 g/ha (hairy beggarticks; [1]): 60%
pest or weed control at 62 g/ha (hairy beggarticks; [2]): 60%
pest or weed control at 125 g/ha (hairy beggarticks; [3]): 70%
pest or weed control at 250 g/ha (hairy beggarticks; [4]): 95%
pest or weed control at 16 g/ha (hairy beggarticks; [5]): 50%
